Results from PubChem BioAssay AID977621 (Broad Institute, 2014).
Records with an inconclusive call do not appear. Active and inactive are the calls of the source.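 How the source made its calls: active means Wild-type ribosome reporter drop at least double the humanized mutant ribosome reporter drop, growth loss under a set limit; inconclusive means no clear call, values can overlap the other calls; inactive means the rest.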

System: E. coli wild-type GFP strain growth, fluorescence, 24 h
Assay: wild-type E. coli growth inhibition versus H69 humanized strain – H69 mutant RFP, wild-type GFP, cherry-pick, dose response (AID 977621);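 further: wild-type GFP and H69 mutant RFP strains grown together 50/50 in each well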
[1] = E. coli mixed culture, 24 h, measured here: total growth OD600, test 2
[2] = measured here: total growth OD600, test 2

Compound | AC50 | AC50 [1] [µM] | AC50 [2] [µM]
CCC(=O)Nc1sc(Cc2ccc3c(c2)OCO3)c(C)c1C(N)=O | > 100 µM (inactive) | 51.4 | –
Cc1nc(SCC(=O)Nc2ccc3c(c2)OCCO3)nc(C)c1C | – | 43.7 | –
CC1(C(=O)Nc2ccc3c(c2)OCCO3)CSCC(=O)N1CCOc1ccccc1 (stereo not given) | > 100 µM (inactive) | > 100 | –
O=C(CC(c1ccccc1)c1cc(Br)ccc1O)N1CCCC1 (stereo not given) | > 100 µM (inactive) | 36.4 | –
Cc1cccc(C)c1OCc1n[nH]c(=S)n1-c1ccccc1 | > 100 µM (inactive) | 44.8 | –
S=c1[nH]nc(-c2ccc(Br)cc2)n1-c1ccc2c(c1)OCCO2 | > 100 µM (inactive) | – | –
Cc1sc2ncn(CC(=O)Nc3ccccc3F)c(=O)c2c1-c1ccccc1 | > 100 µM (inactive) | – | –
COc1ccc(OCC2c3cc(OC)c(OC)cc3CCN2C(=O)C(C)C)cc1 (stereo not given) | > 100 µM (inactive) | – | –
Nc1nc(SCc2ccccc2)c2ncn(Cc3ccccc3)c2n1 | > 100 µM (inactive) | 41.2 | –
Cc1ccc(NC(=O)C2CCCN(c3ncnc4c3nc3n4CCCCC3)C2)cc1Cl (stereo not given) | – | > 100 | –
COc1ccccc1C1CCN(C(=O)c2ccco2)CC1 | – | > 100 | –
COc1ccc(NC(=O)CN(c2ccccc2OC)S(=O)(=O)c2cccs2)cc1Cl | – | > 100 | –
O=C(COC(=O)CCSc1ccc(F)cc1)NCc1ccc(F)cc1 | > 100 µM (inactive) | – | –
O=C(Nc1cscc1S(=O)(=O)c1ccccc1)c1ccccc1Cl | > 100 µM (inactive) | – | –
COc1ccc(-c2nnn(CC(=O)N3CCN(c4ccccc4OC)CC3)n2)cc1OC | > 100 µM (inactive) | – | –
C[C@@H]1CN([C@@H](C)CO)C(=O)c2cccc(NC(=O)Nc3ccccc3)c2O[C@@H]1CN(C)S(=O)(=O)c1ccc(Cl)cc1 | > 100 µM (inactive) | 37.7 | –
COc1ccc(CC(=O)Oc2ccc(C)cc2C)cc1 | – | > 100 | –
C[C@@H]1CN([C@@H](C)CO)C(=O)c2cc(NC(=O)Nc3cccc4ccccc34)ccc2O[C@@H](C)CCCCO[C@@H]1CN(C)C | – | > 100 | –
CCOC(=O)c1c(NC(=O)CN2CCC(C)CC2)sc(C)c1C | – | 48.5 | –
Cc1onc(-c2ccccc2Cl)c1C(=O)N[C@@H](C)c1ccccc1 | > 100 µM (inactive) | > 100 | –
CCc1cc2cc(OC)ccc2nc1SCC(=O)Nc1cc(OC)c(OC)cc1C(=O)O | – | > 100 | –
O=C(Nc1cccnc1)c1ccc([N+](=O)[O-])o1 | > 100 µM (inactive) | – | –
CCN(CC)S(=O)(=O)c1ccc(O)c(C(=O)OCC(=O)NC23CC4CC(CC(C4)C2)C3)c1 | > 100 µM (inactive) | > 100 | –

Compound | AC50 | AC50 [1] [µM] | AC50 [2] [µM]
O=c1c2ccccc2nc(SCc2ccccc2)n1CC1CCCO1 (stereo not given) | – | 51.1 | –
COc1ccccc1Cn1c(=S)[nH]c2ccccc2c1=O | > 100 µM (inactive) | – | –
CS(=O)(=O)c1cccc(C(=O)Nc2cccc(-c3nc4ccccc4[nH]3)c2)c1 | > 100 µM (inactive) | – | –
CCN(c1ccc(OC)cc1)S(=O)(=O)c1cc(-c2cc(C)no2)ccc1OC | > 100 µM (inactive) | 36.8 | –
NC(=O)CSc1nc2cc([N+](=O)[O-])ccc2n1-c1cccc(C(F)(F)F)c1 | > 100 µM (inactive) | – | –
COc1cc2c(cc1OC)CN(c1ccc([N+](=O)[O-])c(C(F)(F)F)c1)CC2 | > 100 µM (inactive) | – | > 100
O=S(=O)(c1ccccc1)N1CCN=C1SCc1cccc(Cl)c1 | > 100 µM (inactive) | 35.9 | –
CC(NC(=O)c1ccncc1)c1ccc(Cl)cc1Cl (stereo not given) | – | > 100 | –
COC(=O)COc1ccc(Cl)cc1C1Nc2ccccc2C(=O)N1c1ccc(OC)cc1 (stereo not given) | > 100 µM (inactive) | > 100 | –
O=C(NCCCN1CCOCC1)c1sc2cc([N+](=O)[O-])ccc2c1Cl | > 100 µM (inactive) | – | –
O=C(CC1C(=O)N(c2ccc(Cl)cc2)C(=S)N1CCc1ccncc1)Nc1ccc(F)cc1 (stereo not given) | – | 36.4 | –
Cc1c(-c2cccc(Cl)c2)nc2ccccc2c1C(=O)N1CCC2(CC1)OCCO2 | > 100 µM (inactive) | – | > 100
COc1ccc(CC(=O)Nc2nc(-c3cc(OC)ccc3OC)cs2)cc1 | > 100 µM (inactive) | 20.9 | –
Cc1nnc2sc(SCC(=O)Nc3ccc(Br)cc3)nn2c1=O | – | > 100 | –
CC(=O)c1ccc(OCC(=O)Nc2ccc3c(c2)CCC3)cc1 | – | > 100 | –
O=C(NCCc1ccccn1)c1cccc(S(=O)(=O)N2CCc3ccccc32)c1 | > 100 µM (inactive) | – | –
CCC(=O)N(CCC(c1ccco1)C(C)C)Cc1ccccc1 (stereo not given) | > 100 µM (inactive) | – | –
COc1ccc(C2=NN(C(=O)c3cccnc3)C(c3ccccc3)C2)cc1 (stereo not given) | – | 1.05 | –
CCC(=O)Nc1nc2ccc(NC(=O)c3cc(OC)c(OC)c(OC)c3)cc2s1 | > 100 µM (inactive) | – | –
CSc1ccccc1NC(=O)CN(C)CC(=O)c1c(C)[nH]c2ccccc12 | > 100 µM (inactive) | 46.2 | –
Cc1ccccc1CSCC(=O)Nc1ccccc1F | > 100 µM (inactive) | – | –
CNC(=O)c1sc(-c2ccccn2)nc1C | – | > 100 | –
